Experiment [1] addresses T1, Adenosine A2A receptor (Homo sapiens, UniProt P29274). The experiment can be described thus: cAMP assay in 293A cells stably expressing the adenosine A2A receptor (CGS21680 stimulation, HTRF). It counts as cell-based. Also on record: expressed in transfected cells; host or cells: 293A cells (Invitrogen, Cat# R705-07) infected with A2A-expressing lentivirus (custom packaged by Biosettia), puromycin selected. The note with it: 293A-A2AR cells, 0.1% BSA, values separated by / are repeat determinations.

In experiment [2] the target is T1, Adenosine A2A receptor. The experiment can be described thus: Adenosine A2A receptor competitive binding assay (Tag-lite HTRF). Conditions: Tag-lite adenosine A2A receptor ligand binding, 2 h room temperature; values separated by / are repeat determinations. The gist of the method: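 Compound displacement of a red fluorescent antagonist tracer (added at 60 nM stock) from donor-labelled, pre-transfected human A2A cells was read by HTRF after 2 h at room temperature; compound dilutions contained 0.6% DMSO.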
In general terms: Time-resolved FRET reads energy transfer from a long-lived donor to a nearby acceptor.

[3] abbreviates: 8 nM CGS, read-out: cAMP (nM) 0.1% BSA, 8 nM CGS.
[4] abbreviates: 1 uM CGS, read-out: cAMP (nM) 0.1% BSA, 1 uM CGS.

Drawing on US20210355104A1, “ADENOSINE RECEPTOR BINDING COMPOUNDS” (Nikang Therapeuticsm Inc., priority 2018, published 2021), this text covers IC50 for 28 compounds.

Where “and” joins values, the source holds several entries; their conditions need not be identical. Equal values may be shown once.

T1 sequence (P29274 whole entry): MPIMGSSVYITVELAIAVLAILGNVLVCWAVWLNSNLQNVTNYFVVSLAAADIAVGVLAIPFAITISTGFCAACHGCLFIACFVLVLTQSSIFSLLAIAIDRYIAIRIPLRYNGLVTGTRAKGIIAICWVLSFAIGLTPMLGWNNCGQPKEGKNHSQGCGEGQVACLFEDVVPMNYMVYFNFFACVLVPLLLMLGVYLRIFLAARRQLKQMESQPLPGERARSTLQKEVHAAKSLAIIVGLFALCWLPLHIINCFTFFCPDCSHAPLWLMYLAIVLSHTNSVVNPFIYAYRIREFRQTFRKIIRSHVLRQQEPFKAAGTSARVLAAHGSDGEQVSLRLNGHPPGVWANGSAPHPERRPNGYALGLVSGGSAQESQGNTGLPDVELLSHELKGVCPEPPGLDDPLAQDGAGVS

As to `Cc1cc(-c2c(OCC(O)CCO)nc(N)nc2-c2ccc(F)cc2)cc(C(F)F)n1` (stereo not shown) [Example 81, 4-((2-amino-5-(2-(difluoromethyl)-6-methylpyridin-4-yl)-6-(4-fluorophenyl)pyrimidin-4-yl)oxy)butane-1,3-diol], the IC50 at Adenosine A2A receptor [1] (setting [3]) is 21 nM and 5.9 nM and 8.4 nM; at Adenosine A2A receptor [2], 5.6 nM.

With `Cc1cc(-c2c(OCCNc3ccccc3)nc(N)nc2-c2ccc(F)cc2)cc(C(F)F)n1` [Example 82, 5-(2-(difluoromethyl)-6-methylpyridin-4-yl)-4-(4-fluorophenyl)-6-(2-(phenylamino)ethoxy)pyrimidin-2-amine], the IC50 amounted to 1.6 nM on Adenosine A2A receptor [1] (setting [3]), 936 nM at Adenosine A2A receptor [1] (setting [4]) and 16 nM on Adenosine A2A receptor [2].

On to `Cc1cc(-c2c(OC[C@@H](O)CO)nc(N)nc2-c2ccc(F)cc2)cc(C(F)F)n1` [Example 83, (S)-3-((2-amino-5-(2-(difluoromethyl)-6-methylpyridin-4-yl)-6-(4-fluorophenyl)pyrimidin-4-yl)oxy)propane-1,2-diol], for which the IC50 on Adenosine A2A receptor [1] (setting [3]) was 2.9 nM and 7.3 nM and 22 nM; on Adenosine A2A receptor [1] (setting [4]) it was 1610 nM; on Adenosine A2A receptor [2], 13 nM.

`Cc1cc(-c2c(OCC(=O)NCc3ccccc3)nc(N)nc2-c2ccc(F)cc2)cc(C(F)F)n1` [Example 84]: the IC50 was 8.7 nM at Adenosine A2A receptor [1] (setting [3]) and 17 nM on Adenosine A2A receptor [2].

As for `Cc1cc(-c2c(OC[C@H](O)CO)nc(N)nc2-c2ccc(F)cc2)cc(C(F)F)n1` [Example 86, (R)-3-((2-amino-5-(2-(difluoromethyl)-6-methylpyridin-4-yl)-6-(4-fluorophenyl)pyrimidin-4-yl)oxy)propane-1,2-diol], the IC50 on Adenosine A2A receptor [1] (setting [3]) was 2 nM and 9.1 nM and 10.5 nM; on Adenosine A2A receptor [1] (setting [4]) it was 1070 nM; on Adenosine A2A receptor [2], 13 nM.

Take `Cc1cc(-c2c(OCCN(C)c3ccccc3)nc(N)nc2-c2ccc(F)cc2)cc(C(F)F)n1` [Example 87, 5-(2-(difluoromethyl)-6-methylpyridin-4-yl)-4-(4-fluorophenyl)-6-(2-(methyl(phenyl)amino)ethoxy)pyrimidin-2-amine]: the results for the IC50 on Adenosine A2A receptor [1] (setting [3]) and at Adenosine A2A receptor [2] were 2.2 nM and 18 nM, respectively.

Regarding `Cc1cc(-c2c(OCC(=O)N(CCO)CCO)nc(N)nc2-c2ccc(F)cc2)cc(C(F)F)n1` [Example 88], the IC50 at Adenosine A2A receptor [1] (setting [3]) stood at 8.3 nM; on Adenosine A2A receptor [1] (setting [4]), 4260 nM; on Adenosine A2A receptor [2], 22 nM.

In the case of `CCN(CCO)C(=O)COc1nc(N)nc(-c2ccc(F)cc2)c1-c1cc(C)nc(C(F)F)c1` [Example 89, 2-((2-amino-5-(2-(difluoromethyl)-6-methylpyridin-4-yl)-6-(4-fluorophenyl)pyrimidin-4-yl)oxy)-N-ethyl-N-(2-hydroxyethyl)acetamide], the IC50 at Adenosine A2A receptor [1] (setting [3]) was 2.2 nM; at Adenosine A2A receptor [2] it was 6.1 nM.

With `CCN(C(=O)COc1nc(N)nc(-c2ccc(F)cc2)c1-c1cc(C)nc(C(F)F)c1)c1ccccc1` [Example 90], the IC50 at Adenosine A2A receptor [1] (setting [3]) was determined as 6.8 nM; on Adenosine A2A receptor [2], 23 nM.

For the compound `Cc1cc(-c2c(OCC(=O)Nc3ccccc3)nc(N)nc2-c2ccc(F)cc2)cc(C(F)F)n1` [Example 92, 2-((2-amino-5-(2-(difluoromethyl)-6-methylpyridin-4-yl)-6-(4-fluorophenyl)pyrimidin-4-yl)oxy)-N-phenylacetamide], the values for the IC50 on Adenosine A2A receptor [1] (setting [3]) and on Adenosine A2A receptor [2] were 6.4 nM and 48 nM, respectively.

`Cc1cc(-c2c(OCCNc3ccccn3)nc(N)nc2-c2ccc(F)cc2)cc(C(F)F)n1` [Example 94, 5-(2-(difluoromethyl)-6-methylpyridin-4-yl)-4-(4-fluorophenyl)-6-(2-(pyridin-2-ylamino)ethoxy)pyrimidin-2-amine]: the IC50 is 0.39 nM and 2.9 nM on Adenosine A2A receptor [1] (setting [3]); 2.4 nM on Adenosine A2A receptor [2].

On to `Cc1cc(-c2c(OCc3nc(C)n[nH]3)nc(N)nc2-c2ccc(F)cc2)cc(C(F)F)n1` [Example 97, 5-(2-(difluoromethyl)-6-methylpyridin-4-yl)-4-(4-fluorophenyl)-6-((3-methyl-1H-1,2,4-triazol-5-yl)methoxy)pyrimidin-2-amine], for which the figures for the IC50 on Adenosine A2A receptor [1] (setting [3]), at Adenosine A2A receptor [1] (setting [4]) and on Adenosine A2A receptor [2] were 4.5 nM, 3310 nM and 14 nM, respectively.

As to `Cc1cc(-c2c(OCC(=O)N(C)c3ccccc3)nc(N)nc2-c2ccc(F)cc2)cc(C(F)F)n1` [Example 98, 2-((2-amino-5-(2-(difluoromethyl)-6-methylpyridin-4-yl)-6-(4-fluorophenyl)pyrimidin-4-yl)oxy)-N-methyl-N-phenylacetamide], the IC50 on Adenosine A2A receptor [1] (setting [3]) was 1.2 nM; on Adenosine A2A receptor [2], 5.9 nM.

Consider `Cc1cc(-c2c(OCC3(F)CCOCC3)nc(N)nc2-c2ccc(F)cc2)cc(C(F)F)n1` [Example 102, 5-(2-(difluoromethyl)-6-methylpyridin-4-yl)-4-(4-fluorophenyl)-6-((4-fluorotetrahydro-2H-pyran-4-yl)methoxy)pyrimidin-2-amine], for which the IC50 is 10 nM at Adenosine A2A receptor [1] (setting [4]) and 0.83 nM on Adenosine A2A receptor [2].

For the compound `COC(=O)NCc1nc(N)nc(-c2ccc(F)cc2)c1-c1cc(C)nc(C(F)F)c1` [Example 103, methyl((2-amino-5-(2-(difluoromethyl)-6-methylpyridin-4-yl)-6-(4-fluorophenyl)pyrimidin-4-yl)methyl)carbamate], the IC50 on Adenosine A2A receptor [1] (setting [3]) was 11 nM; on Adenosine A2A receptor [2], 47 nM.

Turning to `CCn1ccnc1COc1nc(N)nc(-c2ccc(F)cc2)c1-c1cc(C)nc(C(F)F)c1` [Example 105, 5-(2-(difluoromethyl)-6-methylpyridin-4-yl)-4-((1-ethyl-1H-imidazol-2-yl)methoxy)-6-(4-fluorophenyl)pyrimidin-2-amine], the IC50 is 0.44 nM and 0.38 nM on Adenosine A2A receptor [1] (setting [3]); 10 nM at Adenosine A2A receptor [1] (setting [4]); 0.17 nM and 1 nM on Adenosine A2A receptor [2].

Regarding `COC(=O)N1CCC(COc2nc(N)nc(-c3ccc(F)cc3)c2-c2cc(C)nc(C(F)F)c2)CC1` [Example 106, methyl 4-(((2-amino-5-(2-(difluoromethyl)-6-methylpyridin-4-yl)-6-(4-fluorophenyl)pyrimidin-4-yl)oxy)methyl)piperidine-1-carboxylate], the IC50 at Adenosine A2A receptor [1] (setting [3]) stood at 43 nM; at Adenosine A2A receptor [2], 38 nM.

For the compound `Cc1cc(-c2c(OCCNS(N)(=O)=O)nc(N)nc2-c2ccccc2)cc(C(F)(F)F)n1` [Example 112], the IC50 stood at 3.1 nM at Adenosine A2A receptor [1] (setting [3]) and 6.7 nM at Adenosine A2A receptor [2].

On to `CNC(=O)NCCOc1nc(N)nc(-c2ccc(F)cc2)c1-c1cc(C)nc(C(F)F)c1` [Example 113, 1-(2-((2-amino-5-(2-(difluoromethyl)-6-methylpyridin-4-yl)-6-(4-fluorophenyl)pyrimidin-4-yl)oxy)ethyl)-3-methylurea], for which the IC50 was 16 nM and 7.5 nM on Adenosine A2A receptor [1] (setting [3]); 8.9 nM at Adenosine A2A receptor [2].

For `Cc1cc(-c2c(OCC3COCCO3)nc(N)nc2-c2ccc(F)cc2)cc(C(F)F)n1` (stereo not shown) [Example 114], the IC50 on Adenosine A2A receptor [1] (setting [3]) was 6.2 nM and 4.2 nM; on Adenosine A2A receptor [2], 7.7 nM.

`CNS(=O)(=O)NCCOc1nc(N)nc(-c2ccc(F)cc2)c1-c1cc(C)nc(C(F)F)c1` [Example 115]: the IC50 on Adenosine A2A receptor [1] (setting [3]) was determined as 9.9 nM; on Adenosine A2A receptor [1] (setting [4]) it was 820 nM; at Adenosine A2A receptor [2] it was 19 nM.

Turning to `COC(=O)NCCOc1nc(N)nc(-c2ccc(F)cc2)c1-c1cc(C)nc(C(F)F)c1` [Example 116, methyl(2-((2-amino-5-(2-(difluoromethyl)-6-methylpyridin-4-yl)-6-(4-fluorophenyl)pyrimidin-4-yl)oxy)ethyl)carbamate], the IC50 on Adenosine A2A receptor [1] (setting [3]) was 4.7 nM and 3.2 nM; on Adenosine A2A receptor [2], 7.3 nM.

Take `CCN(C(=O)COc1nc(N)nc(-c2ccc(F)cc2)c1-c1cc(C)nc(C(F)F)c1)c1ccccn1` [Example 117, 2-((2-amino-5-(2-(difluoromethyl)-6-methylpyridin-4-yl)-6-(4-fluorophenyl)pyrimidin-4-yl)oxy)-N-ethyl-N-(pyridin-2-yl)acetamide]: the IC50 amounted to 27 nM at Adenosine A2A receptor [1] (setting [3]) and 39.4 nM on Adenosine A2A receptor [2].

As for `CCN(C(=O)COc1nc(N)nc(-c2ccc(F)cc2)c1-c1cc(C)nc(C(F)F)c1)C1COC1` [Example 118, 2-((2-amino-5-(2-(difluoromethyl)-6-methylpyridin-4-yl)-6-(4-fluorophenyl)pyrimidin-4-yl)oxy)-N-ethyl-N-(oxetan-3-yl)acetamide], the results for the IC50 at Adenosine A2A receptor [1] (setting [3]) and at Adenosine A2A receptor [2] were 18 nM and 28.7 nM, respectively.

On to `COC(=O)NCCOc1nc(N)nc(-c2ccccc2)c1-c1cc(C)nc(C(F)(F)F)c1` [Example 119, methyl(2-((2-amino-5-(2-methyl-6-(trifluoromethyl)pyridin-4-yl)-6-phenylpyrimidin-4-yl)oxy)ethyl)carbamate], for which the IC50 at Adenosine A2A receptor [1] (setting [3]) is 5.8 nM and 5.4 nM; at Adenosine A2A receptor [2], 16.8 nM.

Turning to `CNC(=O)NCCOc1nc(N)nc(-c2ccccc2)c1-c1cc(C)nc(C(F)(F)F)c1` [Example 120, 1-(2-((2-amino-5-(2-methyl-6-(trifluoromethyl)pyridin-4-yl)-6-phenylpyrimidin-4-yl)oxy)ethyl)-3-methylurea], the IC50 was 13 nM and 8.2 nM on Adenosine A2A receptor [1] (setting [3]); 8.8 nM at Adenosine A2A receptor [2].

On to `CCNC(=O)N(CC)CCOc1nc(N)nc(-c2ccc(F)cc2)c1-c1cc(C)nc(C(F)F)c1` [Example 123, 1-(2-((2-amino-5-(2-(difluoromethyl)-6-methylpyridin-4-yl)-6-(4-fluorophenyl)pyrimidin-4-yl)oxy)ethyl)-1,3-diethylurea], for which the IC50 at Adenosine A2A receptor [1] (setting [3]) was 0.87 nM and 0.67 nM; at Adenosine A2A receptor [2] it was 1.2 nM.

Take `CCN(CCOc1nc(N)nc(-c2ccc(F)cc2)c1-c1cc(C)nc(C(F)F)c1)C(=O)NC` [Example 124, 1-(2-((2-amino-5-(2-(difluoromethyl)-6-methylpyridin-4-yl)-6-(4-fluorophenyl)pyrimidin-4-yl)oxy)ethyl)-1-ethyl-3-methylurea]: the IC50 is 1.1 nM and 0.5 nM at Adenosine A2A receptor [1] (setting [3]); 535 nM on Adenosine A2A receptor [1] (setting [4]); 1.7 nM on Adenosine A2A receptor [2].
